Earlier results as cited in patent EP4302755B1, “PALBOCICLIB FORMULATION CONTAINING AN AMINO ACID” (Lotus Pharmaceutical Co., Ltd., priority 2022, dated 2024).
Read-outs that look alike come from different tables or passages of the source.

Key:
[1] = at low pH (2.1-4.5)

- pKa (the pyridine nitrogen): ~4.1
- pKa (the secondary piperazine nitrogen): approximately 7.3
- solubility [1]: water soluble
SMILES: CC(=O)c1c(C)c2cnc(Nc3ccc(N4CCNCC4)cn3)nc2n(C2CCCC2)c1=O [Palbociclib]
